Data: ChEMBL document CHEMBL1155172, “Distribution of radioactivity in bone and related structures following administration of [14C]dalbavancin to New Zealand white rabbits” (Antimicrob Agents Chemother, 2007)

How the values were obtained:
Design in all cases: dose 20 mg/kg, route intravenous
Conditions in all cases: in vivo
[1] = Drug level in New Zealand white rabbit bone marrow assessed as [14C]dalbavancin level per gram of tissue at 20 mg/kg, iv after 168 hrs by autoradioluminography; format: ADME, organism-based, Oryctolagus cuniculus
[2] = Drug level in New Zealand white rabbit nucleus pulposus assessed as [14C]dalbavancin level per gram of tissue at 20 mg/kg, iv after 72 hrs by liquid scintillation counting method; format: ADME, organism-based, Oryctolagus cuniculus
[3] = Drug level in New Zealand white rabbit skeletal muscle assessed as [14C]dalbavancin level per gram of tissue at 20 mg/kg, iv after 336 hrs by autoradioluminography; format: ADME, organism-based, Oryctolagus cuniculus
[4] = Drug level in New Zealand white rabbit synovial space assessed as [14C]dalbavancin level per gram of tissue at 20 mg/kg, iv after 12 hrs by autoradioluminography; format: ADME, organism-based, Oryctolagus cuniculus
[5] = Drug level in New Zealand white rabbit epiphyseal plate assessed as [14C]dalbavancin level per gram of tissue at 20 mg/kg, iv after 72 hrs by autoradioluminography; format: ADME, organism-based, Oryctolagus cuniculus
[6] = Drug level in New Zealand white rabbit articular cartilage assessed as [14C]dalbavancin level per gram of tissue at 20 mg/kg, iv after 72 hrs by autoradioluminography; format: ADME, organism-based, Oryctolagus cuniculus
[7] = tested on: Blood; experiment: Drug level in New Zealand white rabbit blood assessed as [14C]dalbavancin level per gram of tissue at 20 mg/kg, iv after 168 hrs by autoradioluminography; format: ADME, organism-based, Oryctolagus cuniculus
[8] = Drug level in New Zealand white rabbit skeletal muscle assessed as [14C]dalbavancin level per gram of tissue at 20 mg/kg, iv after 12 hrs by autoradioluminography; format: ADME, organism-based, Oryctolagus cuniculus
[9] = Drug level in New Zealand white rabbit epiphyseal plate assessed as [14C]dalbavancin level per gram of tissue at 20 mg/kg, iv after 24 hrs by autoradioluminography; format: ADME, organism-based, Oryctolagus cuniculus
[10] = Drug level in New Zealand white rabbit synovial space assessed as [14C]dalbavancin level per gram of tissue at 20 mg/kg, iv after 336 hrs by autoradioluminography; format: ADME, organism-based, Oryctolagus cuniculus
[11] = Drug level in New Zealand white rabbit periostium assessed as [14C]dalbavancin level per gram of tissue at 20 mg/kg, iv after 336 hrs by autoradioluminography; format: ADME, organism-based, Oryctolagus cuniculus, Periosteum

Drug uptake [1]: 18.9 µg
Drug uptake [2]: 0.67 µg
Drug uptake [3]: 0.8 µg/g
Drug uptake [4]: 6.56 µg/g
Drug uptake [5]: 11.7 µg/g
Drug uptake [6]: 8.04 µg/g
Drug uptake [7]: 5.33 µg/g
Drug uptake [8]: 3.26 µg
Drug uptake [9]: 18.7 µg/g
Drug uptake [10]: 1.16 µg/g
Drug uptake [11]: 5.18 µg
Structure (SMILES): CN[C@H]1C(=O)N[C@@H]2Cc3ccc(cc3)Oc3cc4cc(c3O[C@@H]3O[C@H](C(=O)O)[C@@H](O)[C@H](O)[C@H]3NC(=O)CCCCCCCCC(C)C)Oc3ccc(cc3Cl)[C@@H](O)[C@@H]3NC(=O)[C@H](NC(=O)[C@@H]4NC(=O)[C@@H](NC2=O)c2cc(cc(O)c2Cl)Oc2cc1ccc2O)c1ccc(O)c(c1)-c1c(O[C@H]2O[C@H](CO)[C@@H](O)[C@H](O)[C@@H]2O)cc(O)cc1[C@@H](C(=O)NCCCN(C)C)NC3=O [DALBAVANCIN]
